Values joined by “and” are separate entries in the source; they are usually repeats but may differ in a detail not shown here. Equal values may be shown once.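 96-well plates; 48 h exposure; 5 concentrations. Endpoints by linear interpolation between flanking doses. Not reached: highest tested concentration assigned. GI50 = concentration required for 50% inhibition of growth. TGI is the concentration that stops growth completely.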
Test system: NCI-H522 lung
Experiment: inhibition of tumour cell growth, NCI panel, 48 h

Row | Compound | TGI | GI50
1 | Cc1cc(-c2nc3ccccc3s2)ccc1NC(=O)[C@@H](N)CCCCN | 19.2 µM | 
2 | CCCCn1cnc2c(c(CC#N)nn2-c2ccccc2)c1=N | > 100 µM | 
3 | COc1ccc(-c2oc(/C=N/NC(N)=S)c([N+](=O)[O-])c2-c2ccc(OC)c(OC)c2)cc1OC | 65.3 µM | 
4 | CCN1CCCC(NCc2c3ccccc3c(CNC3CCCN(CC)C3)c3ccccc23)C1 (centres undefined) | 8.12 µM | 
5 | COc1c(O)c2c3c(c(C)cc(O)c3c1O)C(=O)C(O)(C(C)(C)C(C)=O)C2=O (centres undefined) | > 100 µM | 49.7 µM and > 100 µM
6 | Nc1nc(N)c(N=O)c(Nc2ccc(Br)cc2)n1 | > 100 µM | 
7 | O=C(CNc1c(Cl)cccc1Cl)NC1C=Cc2ccc(S(=O)(=O)Nc3c(Cl)cccc3Cl)cc2C1=O (centres undefined) | > 100 µM | 
8 | C[C@]12CC[C@@H]3c4ccc(O)cc4CC[C@H]3[C@@H]1C/C(=C\c1ccncc1)[C@@H]2O | 20.1 µM | 
9 | S=C(/N=c1\sc(Nc2ccc(Cl)cc2)nc2sc3c(c12)CCN(N1CCc2c(sc4nc(Nc5ccc(Cl)cc5)s/c(=N\C(=S)Nc5ccc(Cl)cc5)c24)C1)C3)Nc1ccc(Cl)cc1 | > 100 µM | 
10 | O=C(Oc1cc(=O)c(OC(=O)c2ccccc2)co1)c1ccccc1 | > 100 µM | 
11 | CCC1=CC2CN3Cn4c(c(COCc5c6n(c7ccccc57)CN5CC7C=C(CC)C5C6(C(=O)OC)C7)c5ccccc54)C(C(=O)OC)(C2)C13 | > 100 µM | 
12 | COc1ccc(CC2c3c(cc(OC)c(OC)c3OC)CCN2C)cc1OC (centres undefined) | > 100 µM | 

Test system: PC-3 prostate
Experiment: inhibition of tumour cell growth, NCI panel, 48 h

Row | Compound | TGI
13 | CN(Cc1ccccc1)c1cc(=O)n(C)c(=O)[nH]1 | > 100 µM
14 | COc1cc2c(cc1OC)[C@H]1CN3CCC[C@H]3C=C1c1ccc(OC)c(O)c1-2 | 0.0269 µM
15 | Oc1[nH]c2ccc(Br)cc2c1N=NC(=S)Nc1ccc(F)cc1 | 39.1 µM
16 | CCOC(=O)C1(C(=O)OCC)COS(=O)OC1 | > 100 µM
17 | O=C(NC(COC(=O)C(Cc1ccccc1)NC(=O)c1ccccc1)Cc1ccccc1)c1ccccc1 (centres undefined) | > 50 µM
18 | CC(O)CCCOC(c1ccccc1)(c1ccccc1)c1ccccc1 (centres undefined) | 23.7 µM
19 | Cc1ccc([N+](=O)[O-])cc1N=NC(=O)NNc1cc([N+](=O)[O-])ccc1C | > 100 µM
20 | CC(C)=CCC/C(C)=C/COC(C)(C)C1=CCC(C)CC1 (centres undefined) (tested in a mixture with another compound) | > 100 µM
21 | O=[N+]([O-])c1ccc(/C=C/c2cc(-c3ccccc3)nc3ccc4ccccc4c23)cc1 | > 100 µM
22 | Cc1cc(-c2nc3ccccc3s2)ccc1NC(=O)[C@@H](N)CCCCN | 30.1 µM
23 | CCCCn1cnc2c(c(CC#N)nn2-c2ccccc2)c1=N | > 100 µM
24 | O=C(CNc1c(Cl)cccc1Cl)NC1C=Cc2ccc(S(=O)(=O)Nc3c(Cl)cccc3Cl)cc2C1=O (centres undefined) | > 100 µM
25 | C[C@]12CC[C@@H]3c4ccc(O)cc4CC[C@H]3[C@@H]1C/C(=C\c1ccncc1)[C@@H]2O | 76.2 µM
26 | S=C(/N=c1\sc(Nc2ccc(Cl)cc2)nc2sc3c(c12)CCN(N1CCc2c(sc4nc(Nc5ccc(Cl)cc5)s/c(=N\C(=S)Nc5ccc(Cl)cc5)c24)C1)C3)Nc1ccc(Cl)cc1 | 87.9 µM
27 | O=C(Oc1cc(=O)c(OC(=O)c2ccccc2)co1)c1ccccc1 | > 100 µM

Test system: SK-MEL-5 melanoma
Experiment: inhibition of tumour cell growth, NCI panel, 48 h

Row | Compound | TGI
28 | Cn1ccnc1C(O)(c1nccn1C)c1nccn1C | > 100 µM
29 | CC12CCC3C(CCC4CC(OC(=O)Cc5ccc(N(CCCl)CCCl)cc5)CCC43C)C1CCC(=O)N2 (centres undefined) | 33.3 µM
30 | CCN(CC)CCCNC(=O)c1ccc([N+](=O)[O-])cc1O | > 100 µM
31 | CN(Cc1ccccc1)c1cc(=O)n(C)c(=O)[nH]1 | > 100 µM
32 | COc1cc2c(cc1OC)[C@H]1CN3CCC[C@H]3C=C1c1ccc(OC)c(O)c1-2 | 0.00133 µM
33 | C=Cc1ccc(C)[n+](C[Si](C)(C)O[Si](C)(C)C[n+]2cc(C=C)ccc2C)c1 | > 100 µM
34 | Oc1[nH]c2ccc(Br)cc2c1N=NC(=S)Nc1ccc(F)cc1 | 24.7 µM
35 | O=c1[nH]cnc(NC2C=C(CO)C(O)C2O)c1[N+](=O)[O-] (centres undefined) | > 100 µM
36 | CCOC(=O)C1(C(=O)OCC)COS(=O)OC1 | > 100 µM
37 | CC(=O)OCC1OC(n2cc(I)c(=O)[nH]c2=O)C(OC(C)=O)C(OC(C)=O)C1OC(C)=O (centres undefined) | > 100 µM
38 | CC(O)CCCOC(c1ccccc1)(c1ccccc1)c1ccccc1 (centres undefined) | 16.6 µM
39 | Cc1ccc([N+](=O)[O-])cc1N=NC(=O)NNc1cc([N+](=O)[O-])ccc1C | 34.9 µM
40 | CC(C(=O)N1C(=O)N(C(=O)C(C)C(O)c2ccccc2)C2CCCCC21)C(O)c1ccccc1 (centres undefined) | > 100 µM
41 | O=C1NCCS(=O)(=O)N[C@@H](CC2=CC=CCC2)C(=O)N2CCCC12 (some centres undefined) | > 100 µM
42 | CC(C)=CCC/C(C)=C/COC(C)(C)C1=CCC(C)CC1 (centres undefined) (tested in a mixture with another compound) | > 100 µM
43 | O=[N+]([O-])c1ccc(/C=C/c2cc(-c3ccccc3)nc3ccc4ccccc4c23)cc1 | > 100 µM
44 | Cc1cc(-c2nc3ccccc3s2)ccc1NC(=O)[C@@H](N)CCCCN | 28 µM
45 | CCCCn1cnc2c(c(CC#N)nn2-c2ccccc2)c1=N | 46.7 µM
46 | CCN1CCCC(NCc2c3ccccc3c(CNC3CCCN(CC)C3)c3ccccc23)C1 (centres undefined) | 27.4 µM
47 | COc1c(O)c2c3c(c(C)cc(O)c3c1O)C(=O)C(O)(C(C)(C)C(C)=O)C2=O (centres undefined) | > 100 µM
48 | C[C@]12CC[C@@H]3c4ccc(O)cc4CC[C@H]3[C@@H]1C/C(=C\c1ccncc1)[C@@H]2O | 17.3 µM
49 | O=C(Oc1cc(=O)c(OC(=O)c2ccccc2)co1)c1ccccc1 | > 100 µM
50 | CCC1=CC2CN3Cn4c(c(COCc5c6n(c7ccccc57)CN5CC7C=C(CC)C5C6(C(=O)OC)C7)c5ccccc54)C(C(=O)OC)(C2)C13 | > 100 µM
51 | O=C(Cc1ccccc1)NN1C(=O)/C(=C\c2ccccc2)SC1=Nc1ccccc1 | > 100 µM
52 | COc1ccc(CC2c3c(cc(OC)c(OC)c3OC)CCN2C)cc1OC (centres undefined) | > 100 µM

Test system: HT29 colon
Experiment: inhibition of tumour cell growth, NCI panel, 48 h

Row | Compound | TGI
53 | Cn1ccnc1C(O)(c1nccn1C)c1nccn1C | > 100 µM
